We go through ten molecules from patent publication US12599601B2, “Antifungal composition containing carbazole compound as active ingredient” (KOREA UNIVERSITY RESEARCH AND BUSINESS FOUNDATION, priority 2019, dated 2026).

The subject of one series is Candida albicans. Put plainly: Inhibition of Candida growth, CLSI M27-A2 broth microdilution (absorbance, MIC). The format is cell-based. Particulars: for MIC: Candida, Table 2; for absorbance of the Candida strain: 37° C., 24 hours, replicate wells. Here is the method:
An inhibitory effect on Candida growth was evaluated using the CLSI M27 method, which is known as a standard method for antifungal susceptibility testing. The evaluation was performed using the broth microdilution method according to the guidelines of CLSI M27-A2. As medium, 10.4 g of RPMI-MOPS, which is RPMI-1640 medium (Gibco, Gaithersburg, MD, USA) supplemented with L-glutamine, was dissolved in 900 mL of distilled water, and then 34.53 g of 0.165 M 3-N-morpholinopropanesulfonic acid MOPS) buffer was dissolved therein to reach a final volume of 1,000 mL, followed by pH adjustment to 7.0. Then, the solution was filtered through a 0.2 μm filter, thus preparing a medium.
The carbazole compound was dissolved in triple distilled water or dimethyl sulfoxide (DMSO) (Sigma) to a concentration of 20 mg/mL.
A Candida strain was incubated in yeast extract peptone dextrose (YPED) for 16 hours at 30° C., and adjusted to 1.0 turbidity (measured by a spectrophotometer at 600 nm) so that the fungal concentration was about 2.0×10^7 CFU/mL. The fungal solution was washed with triple distilled water, and then diluted again with RPMI-MOPS medium, and 100 μL of the fungal solution was dispensed into each of well Nos. 1 to 10 of a 96-well microplate (final cell concentration: 2.0×10^4 CFU/mL). In addition, 100 μL of the fungal solution was dispensed into well No. 11 (a growth control well), and only 100 μL of RPMI-MOPS medium was dispensed into well No. 12 (a medium control well). After completion of fungal inoculation, the microplate was incubated at 37° C. for 24 hours.
For evaluation of the results, data were obtained by measuring the absorbance using a microplate spectrophotometer to prevent errors by the inspector.
In the data, the concentration at which growth was inhibited based on the medium control well was determined as MIC (minimum inhibitory concentration), and the results are shown in Table 2 below and FIG. 1.

The test system of another series is HeLa cells. Particulars: 16 hours treatment, MTS, tested 1 to 64 μg/ml. Here is the method:
The cytotoxicity of the carbazole compound to mammalian cells was evaluated using the human cervical cancer cell line HeLa.
Cells were seeded into a 96-well microplate at a density of 1.0×10^4 cells per well, and cultured in 10% FBS-containing DMEM for 24 hours at 37° C. Then, the medium was removed, each well was washed once with PBS and then treated with the synthesized compound diluted in DMEM serially from a concentration of 64 μg/ml to a concentration of 1 μg/ml. 16 hours after treatment with the compound, cytotoxicity was measured using MTS.

Series [1] deals with Candida SC5314. Put plainly: Survival of candidiasis mouse models, compounds in drinking water. The class given is in vivo. The note with it: Balb/C mice infected by tail vein; drinking water with molecule B 16 μg/ml or molecule C 32 μg/ml daily; monitored 2 weeks; control 0% within 9 days. The text has this:
(§1) For Candida infection, SC5314, a wild-type strain, was used, and 6-week-old Balb/C female mice were used. The mice were divided into two groups, each consisting of 5 mice, and the survival rate thereof was monitored.
The control group of the experiment using drinking water was provided with normal drinking water daily after Candida infection performed by tail vein injection as described in Example 3-1, and the experimental groups were provided daily with drinking water treated with molecule B at a concentration of 16 μg/ml or with drinking water treated with molecule C at a concentration of 32 μg/ml. The survival rates of the mice were monitored daily for 2 weeks.

The next series concerns S. cerevisiae. The experiment in a line: MIC test against budding yeast, same manner as Example 1-1. The format is cell-based.
In the next series the test system is A. fumigatus. Put plainly: MIC test against A. fumigatus, same manner as Example 1-1. The format is cell-based.
The subject of series [2] is Candida SC5314. Put plainly: Extent of kidney infection in Candida-infected mice. Particulars: Candida infection by tail vein injection; treated as in Example 3-1. The class given is in vivo. Here is the method:
as §1
5.0×10^5 Candida cells were diluted in 200 μl of PBS and mice were infected with the dilution by tail vein injection. From day 1 after infection, the control group was inoculated with 200 μl of PBS by tail vein injection, the experimental groups were weighed and treated with molecule B (diluted in 100 μl of PBS) in an amount of 8 mg/kg by tail vein injection or treated with molecule C (diluted in 100 μl of PBS) in an amount of 16 mg/kg by tail vein injection.
After Candida infection performed by tail vein injection as described in Example 3-1, the mice showing the following conditions based on humane euthanasia standards were euthanized using CO2, and the kidneys were collected therefrom and the extents of infection thereof were compared: inability to eat food or drink water; abnormal breathing; dull and stiff hair; reduced movement; or bent posture or body tremor.

Setting [3] is: Candida albicans, read-out: MIC.

In brackets after ≈: the same amount, converted by molar mass. Several values for one entry are separate records, joined by “and”; a condition that tells them apart may be missing. Equal values may be shown once. Read-outs that look alike come from different tables or passages of the source.

What is called MIC is the least concentration at which growth counts as inhibited. Turning to `C(=C\c1ccccc1)/CN1CCN(CCCCCn2c3ccccc3c3ccccc32)CC1` [Molecule A], in the series on Candida albicans (setting [3]), the MIC is 32 µg/mL (≈ 73.1 µM).
Consider `Nc1ccc(CCCN2CCN(CCCCn3c4ccccc4c4cc(Br)ccc43)CC2)cc1` [Molecule B], for which the “concentration up to which no toxicity to mammalian cells was shown” value in the series with HeLa cells is at most 16000 ng/mL. Further, the “MIC against Candida” value with Candida albicans turned out to be 8 µg/mL (≈ 15.4 µM). Also, the “absorbance of the Candida strain” value is 0.209 and 0.229 and 0.206 with Candida albicans (0.125 μg/ml compound); 0.199 and 0.201 and 0.212 in the series with Candida albicans (0.25 μg/ml compound); 0.198 and 0.199 and 0.218 with Candida albicans (0.5 μg/ml compound); 0.224 and 0.228 and 0.208 with Candida albicans (1 μg/ml compound); 0.143 (2×) and 0.152 with Candida albicans (2 μg/ml compound); 0.137 and 0.132 and 0.135 with Candida albicans (4 μg/ml compound). Moreover, the “absorbance of the Candida strain” value in the series on Candida albicans (8 μg/ml compound) was 0.041 (2×) and 0.034; in the series on Candida albicans (16 μg/ml compound), 0.042 (2×) and 0.036; in the series with Candida albicans (32 μg/ml compound), 0.047 and 0.045 and 0.04; in the series with Candida albicans (64 μg/ml compound) it was 0.043 and 0.044 and 0.036. In the series with Candida albicans, the MIC was 8 µg/mL (≈ 15.4 µM). In the series on Candida SC5314 [1], the survival rate amounted to 100%. Besides, the “MIC against budding yeast S. cerevisiae” value against S. cerevisiae came out at 4 µg/mL (≈ 7.7 µM). Also, the “MIC against A. fumigatus” value with A. fumigatus was 64 µg/mL (≈ 123 µM). The “extent of kidney infection compared to control mice” value with Candida SC5314 [2] was “very low extent of kidney infection”.
As to `Nc1ccc(CCCN2CCN(CCCCn3c4ccccc4c4ccccc43)CC2)cc1` [Molecule C], the “concentration up to which no toxicity to mammalian cells was shown” value in the series on HeLa cells was at most 32000 ng/mL. Moreover, the “MIC against Candida” value against Candida albicans amounted to 16 µg/mL (≈ 36.3 µM). The “absorbance of the Candida strain” value in the series with Candida albicans (0.125 μg/ml compound) was 0.168 and 0.156 and 0.17; in the series with Candida albicans (0.25 μg/ml compound), 0.189 and 0.193 and 0.162; in the series with Candida albicans (0.5 μg/ml compound), 0.182 and 0.25 and 0.199; in the series with Candida albicans (1 μg/ml compound) it was 0.196 and 0.193 and 0.194; in the series with Candida albicans (2 μg/ml compound), 0.19 and 0.198 and 0.188; in the series on Candida albicans (4 μg/ml compound), 0.194 and 0.24 and 0.195. The “absorbance of the Candida strain” value in the series with Candida albicans (8 μg/ml compound) is 0.122 and 0.136 and 0.124; in the series on Candida albicans (16 μg/ml compound), 0.044 and 0.04 and 0.038; in the series on Candida albicans (32 μg/ml compound), 0.043 and 0.039 (2×); with Candida albicans (64 μg/ml compound), 0.044 and 0.04 and 0.039. Besides, the MIC against Candida albicans stood at 16 µg/mL (≈ 36.3 µM). Moreover, the survival rate in the series with Candida SC5314 [1] was 80%. Besides, the “MIC against budding yeast S. cerevisiae” value against S. cerevisiae came out at 4 µg/mL (≈ 9.08 µM). In addition, the “MIC against A. fumigatus” value in the series on A. fumigatus worked out at 64 µg/mL (≈ 145 µM). Besides, the “extent of kidney infection compared to control mice” value in the series with Candida SC5314 [2] was “very low extent of kidney infection”.
Take `CN(C/C=C/c1ccccc1)CCCCn1c2ccccc2c2ccccc21` [Molecule D]: in the series on Candida albicans (setting [3]), the MIC is 16 µg/mL (≈ 43.4 µM).
Turning to `Nc1cccc(CCCN2CCN(CCCCn3c4ccccc4c4ccccc43)CC2)c1` [Molecule E], in the series with Candida albicans (setting [3]), the MIC is 32 µg/mL (≈ 72.6 µM).
On the same count and under the same terms, for `Nc1ccc(CCCN2CCN(CCCCN(c3ccccc3)c3ccccc3)CC2)cc1` [Molecule F] the value was 32 µg/mL (≈ 72.3 µM).
The molecule `Nc1ccc(CCCN2CCN(CCCCn3c4ccccc4c4cc([N+](=O)[O-])ccc43)CC2)cc1` [Molecule G] came in with a minimal inhibitory concentration (MIC) against Candida albicans of 16 µg/mL (≈ 32.9 µM).
In the case of `Nc1ccc(CCCCN2CCN(CCCCn3c4ccccc4c4ccccc43)CC2)cc1` [Molecule H], the minimal inhibitory concentration (MIC) in the series on Candida albicans (setting [3]) was found to be 32 µg/mL (≈ 70.4 µM).
On the same count and under the same terms, for `Nc1ccc(CCCC2CCN(CCCCn3c4ccccc4c4ccccc43)CC2)cc1` [Molecule I] the value was 32 µg/mL (≈ 72.8 µM).
Molecule `Nc1ccc(CCCN2CCN(CCCCn3c4ccccc4c4cccc(Br)c43)CC2)cc1` [Molecule J] came in with a minimum inhibitory concentration (MIC) against Candida albicans of 32 µg/mL (≈ 61.6 µM).
